Test results reported in patent publication US20190224222A1, “METHOD OF INHIBITING QUORUM SENSING USING D-GALACTOSE” (Seoul National University R&DB Foundation, priority 2014, published 2019).

What was measured:
Fn AI-2 activity = test: AI-2 activity, bioluminescence of reporter strain V. harveyi BB170; type: cell-based, Vibrio harveyi BB170 (ATCC BAA-1117); conditions: for Bioluminescence: V. harveyi BB170 + Fn AI-2 10% (v/v), sugar 20 mM, lower = higher inhibition, Fn/AI-2 control 10712312, BB170 alone 856873
Procedure: The quorum sensing autoinducer, AI-2 stimulates luciferase operon (lux genes) of V. harveyi to induce luciferase expression, resulting in luminescence. Therefore, inhibition of AI-2 activity was confirmed by measuring bioluminescence by AI-2. Bioluminescence mediated by AI-2 was determined using the AI-2 reporter strain V. harveyi BB170. V. harveyi BB170 was cultured in AB medium overnight at 30° C. until OD600 nm=0.7. The bacteria were washed with fresh AB medium and diluted to a concentration of 10^6 cells/ml. Thereafter, V. harveyi BB170 culture broth (5 ml) was mixed with a partially purified F. nucleatum AI-2(′Fn AI-2′) and D-gal (0 or 20 mM) or D-rib (0 or 20 mM). The partially purified Fn AI-2 was obtained by partially purifying the Fn culture broth using a C18 Sep-Pak reverse-phase column (Waters Co., Milford, Mass.). The Fn culture broth or the partially purified Fn AI-2 was added such that a final concentration of AI-2 in the mixture was 10% (vol/vol). 10% (v/v) of Fn AI-2 corresponds to the Fn bacterial number of 1.9×10^8. Then, culture was performed at 30° C. for 1-8 hours. The bioluminescence was measured using a luminometer (GloMax1—Multi detection System, Promega, Madison, Wis.). BB170 is one of V. harveyi bacteria which have a characteristic of recognizing AI-2 to show bioluminescence. The higher bioluminescence value thus measured represents higher AI-2 activity.

S. oxalis (So) biofilm = test: S. oxalis biofilm formation, crystal violet staining; type: cell-based, Streptococcus oxalis (ATCC 9811); conditions: for OD590: So on saliva-coated glass slip, sugar 2 mM, So control 0.59
Procedure: 2 mL (2×10^7/ml) of the culture broth of a representative cariogenic bacterium S. mutans (Sm) and 2 mL (2×10^7/ml) of the culture broth of one of normal oral flora, S. oxalis (SO) were added to a saliva-coated glass slip (round, 12 mm radius), respectively and cultured with 0 mM or 2 mM of D-galactose to form biofilms. […] Further, the biofilms were stained with fluorescent materials using the live/dead-BacLight viability kit (Invitrogen, Grand Island, N.Y., USA), followed by analysis. For comparison, 2 μM of the furanone compound was used instead of D-galactose to perform the same test.

[1] = tested on: F. nucleatum (Fn) biofilm; test: Fn biofilm formation induced by Fn AI-2, fluorescence staining (confocal); type: cell-based, F. nucleatum (ATCC 25586); conditions: D-rib or D-gal 200 mM, Fn AI-2 10% (v/v)
Procedure: (§1) Further, inhibitory effects of individual QSI candidates on Fn biofilm formation induced by Fn AI-2 were examined by fluorescence staining. 2 ml of Fn culture broth (the number of bacteria: 2×10^7/ml) was used, and Fn AI-2 was used in a volume of 10% (v/v) with respect to the total volume of a mixture with Fn culture broth. As the QSI candidates, 200 mM of D-rib or D-gal was used, and 20 μM of the furanone compound was used. Biofilms formed on the cover slip were stained with fluorescent materials using the live/dead-BacLight viability kit (Invitrogen, Grand Island, N.Y., USA) and observed using a confocal microscope (Carl Zeiss, LSM 700). […] Fluorescence intensities of the obtained individual fluorescence images were quantified using ZEN 2010 program of a confocal microscope, and shown in FIG. 3.

[2] = tested on: T. forsythia (Tf) biofilm; test: Tf biofilm formation induced by Fn AI-2, crystal violet staining; type: cell-based, T. forsythia (ATCC 43037); conditions: for OD590 nm: Tf + Fn AI-2 10% (v/v), sugar 2 mM, 48-72 h, Tf/AI-2 control 0.48, Tf 0.32; for inhibitory effect on Tf biofilm formation, in words: crystal violet, sugars 2 mM
Procedure: To test biofilm formation by Tf, a test was performed in the same manner as in Example 3. That is, a Tf culture broth (2 ml; a negative control group, the number of bacteria: 2×10^8/ml), a mixture of Tf culture broth (2 ml) and Fn AI-2 (10% (v/v) with respect to the total volume of the mixture with Tf culture broth), or a mixture of Tf culture broth (2 ml) and Fn AI-2 (10% (v/v) with respect to the total volume of the mixture with Tf culture broth) and D-gal (2 mM) was added to a 24-well plate with a glass slip (round, 12 mm radius), and cultured under anaerobic conditions for 48-72 hours. For comparison, 2 mM of D-rib or 2 μM of the furanone compound [(5Z)-4-bromo-5-(bromomethylene)-2(5H)-furanone] was used instead of D-gal to perform the same test.
Biofilms formed on the cover slips were stained with 10% crystal violet [Tris(4-(dimethylamino)phenyl)methylium chloride] for 10 minutes, washed three times with PBS, and destained with 1 ml of acetone-alcohol (20:80, vol/vol). The optical density at 590 nm of the destaining solution containing crystal violet was measured using a microplate reader (a Wallac Victor3 microtiter, PerkinElmer Life Sciences, Waltham, Mass.). The smaller optical density (OD590) measured at 590 nm represents more inhibition of biofilm formation, that is, higher quorum sensing inhibitory effect of the used QSI candidate.

[3] = tested on: T. forsythia (Tf) biofilm; test: Tf biofilm formation induced by Fn AI-2, fluorescence staining (confocal); type: cell-based, T. forsythia (ATCC 43037); conditions: D-rib or D-gal 200 mM
Procedure: as §1, with “on Tf” for “on Fn”, “of Tf” for “of Fn”, “bacteria: 2×10^8/ml)” for “bacteria: 2×10^7/ml)”, “with Tf” for “with Fn”, “FIG. 9.” for “FIG. 3.”

SMILES	bioluminescence relative to the bioluminescence upon addition of D-rib (Fn AI-2 activity; D-gal 20 mM vs D-rib 20 mM)	Bioluminescence (Fn AI-2 activity)	quorum sensing inhibitory efficacy relative to D-ribose, in words (Fn AI-2 activity; general statement of the specification)	OD590 (S. oxalis (So) biofilm)	effect on So biofilm formation, in words (S. oxalis (So) biofilm; crystal violet, D-gal 2 mM compared to D-rib and the furanone compound)	inhibitory effect on Fn biofilm formation, in words [1]	OD590 nm [2]	inhibitory effect on Tf biofilm formation, in words [2]	inhibitory effect on Tf biofilm formation, in words [3]
O=C[C@H](O)[C@@H](O)[C@@H](O)[C@H](O)CO [D-gal, D-galactose]	about 20%	1138752	twice higher than that of D-ribose	1.07	did not inhibit but increased biofilm formation	remarkably excellent inhibitory effect	0.2	excellent inhibitory effect	most excellent inhibitory effect
O=C[C@H](O)[C@H](O)[C@H](O)CO [D-rib, D-ribose, reference compound]	–	5481975	–	0.85	–	inhibited	0.41	significant inhibitory effect	inhibited
